# Measurements from paper PMC8808171, “Nonselective TRPC channel inhibition and suppression of aminoglycoside-induced premature termination codon readthrough by the small molecule AC1903” (The Journal of Biological Chemistry, 2022).
# Experiments:
# [1] = test system: DMS-114 cells (TP53 R213X); test: G418-induced PTC readthrough (full-length p53, capillary electrophoresis Western) in DMS-114 cells; type: cell-based, human; settings: for reduction of PTC readthrough compared with G418 alone: then 400 μg/ml G418 (Fig. 2A)
# Description: Variation in PTC readthrough response has been reported among individuals or cell lines with different nonsense mutations. Although this in part highlights the importance of the stop codon and its surrounding sequence as well as the physical location of the nonsense mutation in the mRNA sequence, understanding the contribution of other underlying genetic variations becomes more complicated. To rule out the effect of the sequence and position of nonsense mutations on response variation to potential PTC readthrough modulators, we studied two cancer cell lines, DMS-114 and TC-71, with identical homozygous nonsense mutation R213X in their TP53 gene. […] To find out whether the reduced response to G418 in TC-71 cells was associated with lower intracellular levels of G418, we measured concentrations of G418 in both cell lines at 0, 8 and 24 h post exposure to G418 (100 μg/ml).
# Figure 1 Effect of TRPC inhibitors on G418 induced PTC readthrough. A, DMS-114 and TC-71 cell lines with homozygous TP53 nonsense mutation (R213X) were exposed to indicated concentrations of G418 for 24 h and p53 levels (full-length, FL-p53; truncated, TR-p53) were measured. B, 100 μg/ml G418 was added to DMS-114 and TC-71 cells and its total intracellular levels were measured at indicated time points (n = 5; data normalized to the highest response in each experiment; bars represent mean ± SD). C, DMS-114 cells were preincubated with indicated concentrations of TRPC inhibitors GFB-8438 (GFB), SAR7334 (SAR), SKF96365 (SKF), 2-APB, or AC1903 for 3 h followed by exposure to 400 μg/ml G418 for another 3 h. At 24 h cell lysates were prepared and p53 levels were measured. In panels A and C, protein levels were measured by automated capillary electrophoresis Western analysis (using vinculin and GAPDH as loading controls). Samples of cell lysates containing equal amounts of total protein were loaded in all capillaries and FL-p53 levels were expressed relative to the amount of FL-p53 in untreated cells. ∗ indicates statistically significant difference between samples according to two-way ANOVA (p < 0.05). PTC, premature termination codon; TRPC, transient receptor potential canonical.
# To further investigate AC1903 as a suppressor of G418-induced PTC readthrough, we exposed DMS-114 and TC-71 cells to various concentrations of AC1903 for 3 h prior to exposure to 400 μg/ml G418 for another 3 h, followed by media replacement and incubation for another 18 h.
# (§1) Figure 2 Effect of AC1903 on PTC readthrough and G418 trafficking.A and B, DMS-114 (A) or TC-71 (B) cells were pretreated with indicated concentrations of AC1903 for 3 h followed by exposure to 400 μg/ml G418. After 3 h medium was replenished and at 24 h cell lysates were prepared and p53 levels were measured. C and E, DMS-114 (C) or JEB01 (E) cells were either left untreated or pretreated with 150 μM AC1903 for 3 h followed by exposure to indicated concentrations of G418 for another 3 h. At 24 h cell lysates were prepared and p53 (C) or Collagen XVII (E) levels were measured. In panels A–C, protein levels were measured by automated capillary electrophoresis Western analysis (using vinculin as loading control). In panel E, protein levels were measured by Western blot (using beta-actin as loading control). Samples of cell lysates containing equal amounts of total protein were loaded in all capillaries and FL-p53 or Collagen XVII levels were expressed relative to their respective amounts in untreated cells. D, total intracellular levels of G418 were measured in the same lysates as in (C) (n = 5; data normalized to the highest response in each experiment; bars represent mean ± SD). F, total intracellular levels of G418 were measured in the same lysates as in (E) (n = 2; data normalized to the highest response in each experiment; bars represent mean ± SD). ∗ indicates statistically significant difference between samples according to one-way ANOVA (p < 0.05). PTC, premature termination codon. […]
# DMS-114 cells = test: Measurement of intracellular G418 (gentamicin ELISA) in DMS-114 cells; type: cell-based, human; settings: 150 μM AC1903 (Fig. 2D)
# Method: as §1, with “Samples of cell lysates containing equal amounts of total protein were loaded in all capillaries and FL-p53 or Collagen XVII levels were expressed relative to their respective amounts in untreated cells.” left out, “0.05).” for “0.05). PTC, premature termination codon.”
smiles,measurement,setting,value
c1ccc(Cn2c(NCc3ccco3)nc3ccccc32)cc1 [AC1903],effect on G418-induced PTC readthrough,"[1]; 150 μM AC1903 3 h, then 400 μg/ml G418 (Fig. S12)",strongly reduced
same,reduction of PTC readthrough compared with G418 alone,[1]; AC1903 50 μM 3 h,20%
same,suppression of G418-induced PTC readthrough,"[1]; AC1903 50 μM, 400 μg/ml G418 (Fig. 1C)",~27%
same,reduction of PTC readthrough compared with G418 alone,[1]; AC1903 150 μM 3 h,74%
same,decrease in full-length p53,"[1]; pretreatment 150 μM AC1903, increasing concentrations of G418 (Fig. 2C)",~70%
same,effect on PTC readthrough of AC1903 alone,[1]; without G418,did not affect PTC readthrough
same,intracellular G418 levels in the presence of AC1903,DMS-114 cells,significantly decreased
